Laboratory results: the NIST ThermoML archive (doi:10.1021/je200836x)
Numbers after ± are expanded uncertainties.

Assay: mn = molality of the nth substance listed, in mol/kg
Details: 101 kPa, Liquid; for molar conductivity: Alternating current cell with electrodes; for mass density: Vibrating tube method

Cc1ccc(C(=O)[O-])c(O)c1.[Na+] [sodium 2-hydroxy-4-methylbenzoate] + O
Details | mass density, 298.15 K [kg/m3] | molar conductivity, 278.15 K [S·m2/mol] | molar conductivity, 283.15 K [S·m2/mol] | molar conductivity, 288.15 K [S·m2/mol] | molar conductivity, 293.15 K [S·m2/mol] | molar conductivity, 298.15 K [S·m2/mol] | molar conductivity, 303.15 K [S·m2/mol] | molar conductivity, 308.15 K [S·m2/mol] | molar conductivity, 313.15 K [S·m2/mol]
m1 = 0.0008766 | – | 0.004463 ± 2.7e-05 | 0.005159 ± 3.1e-05 | 0.005899 ± 3.5e-05 | 0.006679 ± 4e-05 | 0.007495 ± 4.5e-05 | 0.008345 ± 5e-05 | 0.009213 ± 5.5e-05 | 0.01012 ± 6.1e-05
m1 = 0.001205 | – | 0.004451 ± 2.7e-05 | 0.005145 ± 3.1e-05 | 0.00588 ± 3.5e-05 | 0.006648 ± 4e-05 | 0.007462 ± 4.5e-05 | 0.008308 ± 5e-05 | 0.009184 ± 5.5e-05 | 0.01008 ± 6.1e-05
m1 = 0.001572 | – | 0.004436 ± 2.7e-05 | 0.005122 ± 3.1e-05 | 0.005855 ± 3.5e-05 | 0.006629 ± 4e-05 | 0.007439 ± 4.5e-05 | 0.008283 ± 5e-05 | 0.009158 ± 5.5e-05 | 0.01005 ± 6e-05
m1 = 0.001976 | – | 0.004416 ± 2.7e-05 | 0.005105 ± 3.1e-05 | 0.005835 ± 3.5e-05 | 0.006608 ± 4e-05 | 0.007414 ± 4.4e-05 | 0.008258 ± 4.9e-05 | 0.009136 ± 5.5e-05 | 0.01003 ± 6e-05
m1 = 0.002453 | – | 0.004401 ± 2.6e-05 | 0.005087 ± 3e-05 | 0.005815 ± 3.5e-05 | 0.006584 ± 3.9e-05 | 0.007387 ± 4.4e-05 | 0.008225 ± 4.9e-05 | 0.009092 ± 5.5e-05 | 0.009964 ± 6e-05
m1 = 0.00301 | – | 0.004382 ± 2.6e-05 | 0.005065 ± 3e-05 | 0.00579 ± 3.5e-05 | 0.006555 ± 3.9e-05 | 0.007356 ± 4.4e-05 | 0.008178 ± 4.9e-05 | 0.009044 ± 5.4e-05 | 0.009933 ± 6e-05
m1 = 0.003696 | – | 0.004364 ± 2.6e-05 | 0.005044 ± 3e-05 | 0.005765 ± 3.5e-05 | 0.006518 ± 3.9e-05 | 0.007314 ± 4.4e-05 | 0.008146 ± 4.9e-05 | 0.009009 ± 5.4e-05 | 0.009892 ± 5.9e-05
m1 = 0.004538 | – | 0.004345 ± 2.6e-05 | 0.005022 ± 3e-05 | 0.005734 ± 3.4e-05 | 0.006493 ± 3.9e-05 | 0.007285 ± 4.4e-05 | 0.008112 ± 4.9e-05 | 0.008969 ± 5.4e-05 | 0.009844 ± 5.9e-05
m1 = 0.005464 | 997.441 ± 0.087 | 0.004332 ± 2.6e-05 | 0.004993 ± 3e-05 | 0.005707 ± 3.4e-05 | 0.006462 ± 3.9e-05 | 0.007251 ± 4.4e-05 | 0.008073 ± 4.8e-05 | 0.008927 ± 5.4e-05 | 0.009798 ± 5.9e-05
m1 = 0.09872 | 1004.12 ± 0.088 | – | – | – | – | – | – | – | –

O=C([O-])c1ccccc1.[Na+] [sodium benzoate] + O
Details | mass density, 298.15 K [kg/m3] | molar conductivity, 278.15 K [S·m2/mol] | molar conductivity, 283.15 K [S·m2/mol] | molar conductivity, 288.15 K [S·m2/mol] | molar conductivity, 293.15 K [S·m2/mol] | molar conductivity, 298.15 K [S·m2/mol] | molar conductivity, 303.15 K [S·m2/mol] | molar conductivity, 308.15 K [S·m2/mol] | molar conductivity, 313.15 K [S·m2/mol]
m1 = 0.0002136 | – | 0.004828 ± 2.9e-05 | 0.005584 ± 3.4e-05 | 0.006384 ± 3.8e-05 | 0.007233 ± 4.3e-05 | 0.00812 ± 4.9e-05 | 0.009043 ± 5.4e-05 | 0.01 ± 6e-05 | 0.01098 ± 6.6e-05
m1 = 0.0004649 | – | 0.00479 ± 2.9e-05 | 0.005542 ± 3.3e-05 | 0.006339 ± 3.8e-05 | 0.007182 ± 4.3e-05 | 0.008063 ± 4.8e-05 | 0.008982 ± 5.4e-05 | 0.009936 ± 6e-05 | 0.01091 ± 6.6e-05
m1 = 0.0007334 | – | 0.004765 ± 2.9e-05 | 0.005514 ± 3.3e-05 | 0.006308 ± 3.8e-05 | 0.007149 ± 4.3e-05 | 0.008027 ± 4.8e-05 | 0.00894 ± 5.4e-05 | 0.009881 ± 5.9e-05 | 0.01085 ± 6.5e-05
m1 = 0.0009986 | – | 0.004746 ± 2.9e-05 | 0.005493 ± 3.3e-05 | 0.006283 ± 3.8e-05 | 0.007122 ± 4.3e-05 | 0.007986 ± 4.8e-05 | 0.008891 ± 5.3e-05 | 0.009829 ± 5.9e-05 | 0.0108 ± 6.5e-05
m1 = 0.001299 | – | 0.00473 ± 2.8e-05 | 0.005474 ± 3.3e-05 | 0.006253 ± 3.7e-05 | 0.007089 ± 4.3e-05 | 0.007958 ± 4.8e-05 | 0.00886 ± 5.3e-05 | 0.009801 ± 5.9e-05 | 0.01078 ± 6.5e-05
m1 = 0.0016 | – | 0.004708 ± 2.8e-05 | 0.005448 ± 3.3e-05 | 0.006234 ± 3.7e-05 | 0.007064 ± 4.2e-05 | 0.007933 ± 4.8e-05 | 0.008837 ± 5.3e-05 | 0.00977 ± 5.9e-05 | 0.01073 ± 6.4e-05
m1 = 0.001996 | – | 0.00469 ± 2.8e-05 | 0.005428 ± 3.3e-05 | 0.006211 ± 3.7e-05 | 0.007037 ± 4.2e-05 | 0.007901 ± 4.7e-05 | 0.008801 ± 5.3e-05 | 0.009733 ± 5.8e-05 | 0.01071 ± 6.4e-05
m1 = 0.002488 | – | 0.004671 ± 2.8e-05 | 0.005407 ± 3.2e-05 | 0.00619 ± 3.7e-05 | 0.00701 ± 4.2e-05 | 0.007872 ± 4.7e-05 | 0.00877 ± 5.3e-05 | 0.009663 ± 5.8e-05 | 0.01063 ± 6.4e-05
m1 = 0.003107 | – | 0.004649 ± 2.8e-05 | 0.00538 ± 3.2e-05 | 0.006164 ± 3.7e-05 | 0.006978 ± 4.2e-05 | 0.007811 ± 4.7e-05 | 0.008706 ± 5.2e-05 | 0.009625 ± 5.8e-05 | 0.01059 ± 6.3e-05
m1 = 0.003832 | – | 0.004634 ± 2.8e-05 | 0.005362 ± 3.2e-05 | 0.006129 ± 3.7e-05 | 0.006945 ± 4.2e-05 | 0.007796 ± 4.7e-05 | 0.008683 ± 5.2e-05 | 0.009598 ± 5.8e-05 | 0.01055 ± 6.3e-05
m1 = 0.00495 | 997.26 ± 0.077 | 0.004604 ± 2.8e-05 | 0.00532 ± 3.2e-05 | 0.006084 ± 3.6e-05 | 0.006895 ± 4.1e-05 | 0.007742 ± 4.6e-05 | 0.008623 ± 5.2e-05 | 0.009539 ± 5.7e-05 | 0.01048 ± 6.3e-05
m1 = 0.08466 | 1001.94 ± 0.077 | – | – | – | – | – | – | – | –
